Results published in patent US12187717B2, “Compound and use thereof in treating autoimmune diseases” (PARENCHYMA BIOTECH INC., priority 2022, dated 2025).

How the values were obtained:
[1] = test system: intestinal epithelial barrier integrity; assay: Mucosal healing with FITC-dextran in DSS-induced inflammatory bowel disease model; format: in vivo, C57BL/6 mice; conditions: 10 mg/kg oral daily, 15th day, 4 hours after FITC-dextran, compared to solvent control
Method: In order to investigate mucosal healing effects of the compounds according to an embodiment of the present invention, inflammatory bowel disease was induced in C57BL/6 mice, and a degree of recovery of intestinal epithelial harrier integrity was assessed by administering Compound 6 as follows. On day 0 of the experiment, a 2.0% DSS solution prepared by dissolving 2.0% DSS in sterile distilled water was given for drinking to C57BL/6 mice (11 weeks old, female, 20±2 g) for 7 days. The 2.0% DSS solution was changed at an interval of 2 days. Sterile distilled water was provided for drinking from the 8th day of the experiment. Body weight and severity index were measured at an interval of 2 days from the 0th day of the experiment, so as to confirm the onset of inflammatory bowel disease. […] 4 hours after oral administration, fluorescence was measured in the serum extracted from the heart (fluorometer, excitation 485490 nm, emission […]).

Th17 cells = assay: IL-17A production of Th17 cells (flex set, flow cytometry); format: cell-based, C57BL/6 mice; conditions: 1.0 μM, 2.5 μM and 5 μM, 3 days, compared to Comparative Example 1
Method: The spleen of C57BL/6 mice (8 to 12 weeks old, female) was excised, pulverized by adding IMDM medium, and then passed through a 40 μm cell strainer (BD Falcon), thereby obtaining a single cell suspension. The single cell suspension was centrifuged (1200 rpm, 5 minutes), and after discarding the supematant, 1 ml of ACK lysis buffer was added, followed by stirring for 1 minute and then washing the same with RPMI medium. After the single cell suspension was centrifuged, T-cells were separated using a Mouse CD4 Naive T cell Enrichment Kit (Invitrogen). The separated T-cells were prepared by resuspending them in RPMI-fetal bovine serum (FBS) 10%+2-ME (mercaptoethanol) medium at 1×10^6/ml. For T-cell activation, 5 μg/ml anti-CD3 (eBioscience™) was dispensed by 100 μl onto a 96-well plate, reacted in a cell incubator (37° C., 5% CO2 incubator) for 4 hours, and washed with phosphate buffered saline to prepare the plate. The T-cells were dispensed by 200 μl onto the prepared plate, and each well was treated with 2 μg/ml of anti-CD28 (eBioscience™), 3 ng/ml of TGFβ-1 (R&D systems), 10 ng/ml of IL-2 (R&D systems), 5 μg/ml of anti-mouse IFN-γ (Bio X cell), and 5 μg/ml of anti-mouse IL-4 (Bio X cell). […]

[2] = test system: colitis-associated colorectal cancer (CA-CRC); assay: AOM/DSS colorectal cancer model, preventive administration; format: in vivo, C57BL/6 mice; conditions: 10 mg/kg oral, 7th to 20th days (prevention)
Method: AOM (Sigma Aldrich, Cat No. A5486) was diluted with physiological saline so as to be a concentration of 10 mg/kg, and then administered intraperitoneally to C57BL/6 mice (8 weeks old, female, 18±2 g) by […] for a total of 3 times at an interval of 7 days (Experiment day 0, 7, 14th). On the 7th day of the experiment, a 1.5% DSS solution prepared by dissolving 1.5% DSS in sterile distilled water was given for drinking to the mice for 7 days. Further, the 1.5% DSS solution was changed at an interval of 2 days. Sterile distilled water was provided for drinking from the 8th day of the experiment. In the compound 6 administration group according to an embodiment of the present invention, 10 mg/kg of Compound 6 per mouse was completely dissolved in an ethanol-Cremophor EL mixture corresponding to 7.5% (v/v) of the administered dose, and then, was diluted in phosphate buffered saline to prepare the final ethanol:Cremophor EL:phosphate buffered saline (0.375:0.375:9.25, v/v/v), followed by oral administration with 200 μl of the prepared solution. In order to confirm the preventive effect, Compound 6 was administered for a total of 14 times from the 7th to the 20th days of the experiment.

**Q.** What does the source list for `O=C(Cc1c[nH]c2ccc(Cl)cc12)Nc1nc2ccc(N3CCOCC3)cc2s1` [Compound 6, 2-(5-chloro-1H-indol-3-yl)-N-(6-morpholinobenzo[d]thiazol-2-yl)acetamide]?
**A.** Serum FITC-dextran [1]: significantly decreased; IL-17A production of Th17 cells (Th17 cells): significantly decreased; body weight ([2]; after 70 days): increase in the body weight similar to that of normal mice; number of tumors ([2]; vs control): significantly smaller; size of tumors ([2]; vs control): significantly smaller
